Assay results published in ChEMBL document CHEMBL1201862, “PubChem BioAssay data set” (2004).
The source made the active and inactive calls.

Tests used:
Escherichia coli = test: microbe, parasite or virus in culture
Protein RecA = molecular target: T1, Protein RecA (Mycobacterium tuberculosis, UniProt P9WHJ3); test: Fluorescence Cell-Free Homogeneous Dose Retest to Identify Inhibitors of RecA-Intein Splicing Activity. [Related pubchem assays (depositor defined):AID2097, AID2223, AID489010, AID492950]; type: functional
T1 sequence (P9WHJ3 whole entry): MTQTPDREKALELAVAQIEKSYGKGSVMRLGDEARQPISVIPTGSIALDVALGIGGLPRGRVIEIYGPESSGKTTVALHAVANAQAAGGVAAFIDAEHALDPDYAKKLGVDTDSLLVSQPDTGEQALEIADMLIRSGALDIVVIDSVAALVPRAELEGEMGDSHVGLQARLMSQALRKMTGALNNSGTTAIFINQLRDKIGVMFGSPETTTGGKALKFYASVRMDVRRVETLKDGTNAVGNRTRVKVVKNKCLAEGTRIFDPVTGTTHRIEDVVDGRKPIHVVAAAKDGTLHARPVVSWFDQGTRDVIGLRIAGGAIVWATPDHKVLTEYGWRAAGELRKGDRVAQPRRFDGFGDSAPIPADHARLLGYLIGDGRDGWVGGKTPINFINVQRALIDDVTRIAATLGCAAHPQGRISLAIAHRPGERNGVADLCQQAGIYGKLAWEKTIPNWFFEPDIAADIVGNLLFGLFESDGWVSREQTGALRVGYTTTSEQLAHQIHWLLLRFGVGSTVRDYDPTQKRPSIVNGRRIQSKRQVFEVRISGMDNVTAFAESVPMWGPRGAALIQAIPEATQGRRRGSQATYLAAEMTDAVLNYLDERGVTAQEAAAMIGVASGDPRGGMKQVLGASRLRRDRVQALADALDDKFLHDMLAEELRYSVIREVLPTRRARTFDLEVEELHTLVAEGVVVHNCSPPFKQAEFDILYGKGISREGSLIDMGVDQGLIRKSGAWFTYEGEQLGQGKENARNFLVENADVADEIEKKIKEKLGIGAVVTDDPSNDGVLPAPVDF

[1] = molecular target: T2, Replicative DNA helicase DnaB (Mycobacterium tuberculosis, UniProt P9WMR3); test: DnaB intein splicing inhibitors, dose response, biochemical, cell-free fluorescence (AID 449749); type: functional
T2 sequence (P9WMR3 whole entry): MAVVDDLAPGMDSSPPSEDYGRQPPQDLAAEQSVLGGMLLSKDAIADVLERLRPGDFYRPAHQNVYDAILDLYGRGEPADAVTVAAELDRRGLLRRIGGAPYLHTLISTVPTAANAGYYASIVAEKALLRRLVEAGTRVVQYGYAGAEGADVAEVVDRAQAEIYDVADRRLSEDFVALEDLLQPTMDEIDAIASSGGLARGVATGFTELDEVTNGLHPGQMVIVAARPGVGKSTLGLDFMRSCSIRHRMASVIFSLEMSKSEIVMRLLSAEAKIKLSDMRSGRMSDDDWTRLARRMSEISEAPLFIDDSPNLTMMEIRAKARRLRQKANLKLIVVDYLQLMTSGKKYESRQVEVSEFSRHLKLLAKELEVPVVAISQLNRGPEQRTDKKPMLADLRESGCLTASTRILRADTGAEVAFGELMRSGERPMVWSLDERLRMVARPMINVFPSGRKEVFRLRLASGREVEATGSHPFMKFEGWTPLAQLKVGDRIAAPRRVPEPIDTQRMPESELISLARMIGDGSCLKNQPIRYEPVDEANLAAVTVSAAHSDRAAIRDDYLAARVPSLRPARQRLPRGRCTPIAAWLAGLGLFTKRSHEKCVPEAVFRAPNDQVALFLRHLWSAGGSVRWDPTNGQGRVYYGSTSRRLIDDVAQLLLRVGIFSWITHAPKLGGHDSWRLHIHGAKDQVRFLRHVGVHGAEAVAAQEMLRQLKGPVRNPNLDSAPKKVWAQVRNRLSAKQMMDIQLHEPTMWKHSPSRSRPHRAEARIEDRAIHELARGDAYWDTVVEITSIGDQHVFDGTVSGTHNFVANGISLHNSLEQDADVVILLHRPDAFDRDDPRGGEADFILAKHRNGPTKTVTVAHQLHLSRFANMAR

[2] = molecular target: G-protein coupled receptor 55 (Homo sapiens, UniProt Q9Y2T6); test: GPR55 agonists via beta-arrestin recruitment, primary screen, imaging, U2OS cells, beta-arrestin-GFP redistribution (AID 1961); type: functional
G-protein coupled receptor 55, sequence (Q9Y2T6 whole entry): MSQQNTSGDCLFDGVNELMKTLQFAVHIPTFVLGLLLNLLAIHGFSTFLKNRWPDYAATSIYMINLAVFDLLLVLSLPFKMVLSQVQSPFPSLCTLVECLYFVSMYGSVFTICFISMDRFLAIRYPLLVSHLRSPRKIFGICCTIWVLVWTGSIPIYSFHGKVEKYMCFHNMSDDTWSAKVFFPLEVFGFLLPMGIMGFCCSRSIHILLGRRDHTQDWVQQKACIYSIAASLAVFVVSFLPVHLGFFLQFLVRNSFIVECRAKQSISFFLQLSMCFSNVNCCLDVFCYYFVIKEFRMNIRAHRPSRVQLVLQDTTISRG

[3] = molecular target: T3, Heat shock factor protein 1 (Mus musculus, UniProt P38532); test: HSF1 potentiators in luciferase reporter cells, confirmation, cell-based, NIH3T3, luminescence, dose retest (AID 435004); type: functional;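 also: stress induced by proteasome inhibitor MG132 added 30 min after compound; luciferase reporter driven by HSF1 response element in NIH3T3 cells; actives raise luminescence as potentiators of the MG132 stress response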
T3 sequence (P38532 whole entry): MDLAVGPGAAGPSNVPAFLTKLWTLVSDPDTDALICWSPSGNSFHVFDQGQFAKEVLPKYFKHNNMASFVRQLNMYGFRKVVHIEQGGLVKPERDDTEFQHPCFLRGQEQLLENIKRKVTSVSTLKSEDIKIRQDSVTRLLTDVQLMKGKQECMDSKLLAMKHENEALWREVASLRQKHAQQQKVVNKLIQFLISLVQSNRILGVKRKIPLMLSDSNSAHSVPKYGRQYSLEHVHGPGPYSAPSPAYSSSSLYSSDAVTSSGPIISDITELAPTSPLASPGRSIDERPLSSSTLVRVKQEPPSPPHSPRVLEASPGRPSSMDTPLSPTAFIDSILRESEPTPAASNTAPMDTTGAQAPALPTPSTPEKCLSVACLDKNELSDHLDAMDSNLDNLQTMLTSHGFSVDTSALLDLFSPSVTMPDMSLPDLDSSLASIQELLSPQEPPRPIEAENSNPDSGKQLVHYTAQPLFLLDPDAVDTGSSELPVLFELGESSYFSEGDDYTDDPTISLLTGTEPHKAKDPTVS

[4] = Shn3 3'UTR reporter inhibitors, dose response, cell-based, Clone20 osteoblasts, firefly luciferase, cherry-picked (AID 624132); type: functional;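 also: firefly luciferase luminescence from reporter carrying the Shn3 3'UTR in osteoblasts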
[5] = control 3'UTR Renilla luciferase suppression, dose response, counter-screen for Shn3 inhibitor project, cell-based, Clone20-Shn3RL, cherry-picked (AID 624133); type: functional
[6] = Luminescence Cell-Based Dose Response HTS to Identify Inhibitors of 5'UTR Stem-Loop Driven Prion Protein mRNA Translation in H4 Neuroglioblastoma Cells. [Related pubchem assays: 1827 (Project Summary), 1813 (Primary HTS)]; type: functional
[7] = inhibitors of SNCA 5'UTR-driven reporter translation, confirmation, H4 neuroglioma cells, luminescence (AID 1988); type: functional, cell-based
[8] = inhibitors of firefly luciferase expression or activity, dose response, H4 neuroglioma cells, luminescence (AID 1990); type: functional, cell-based
[9] = HepG2 cell cytotoxicity, dose response, cytotoxicity control for Shn3 inhibitor project, CellTiter-Glo, cherry-picked (AID 624134); type: functional, cell-based
[10] = molecular target: T4, Polyadenylate-binding protein 1 (Homo sapiens, UniProt P11940); test: PABP1 MLLE–PAM2 binding inhibitor potency, dose response, biochemical, fluorescence polarization, FITC-PAM2 peptide (AID 602259); type: functional; conditions: read-out: IC50_Mean
T4 sequence (P11940 whole entry): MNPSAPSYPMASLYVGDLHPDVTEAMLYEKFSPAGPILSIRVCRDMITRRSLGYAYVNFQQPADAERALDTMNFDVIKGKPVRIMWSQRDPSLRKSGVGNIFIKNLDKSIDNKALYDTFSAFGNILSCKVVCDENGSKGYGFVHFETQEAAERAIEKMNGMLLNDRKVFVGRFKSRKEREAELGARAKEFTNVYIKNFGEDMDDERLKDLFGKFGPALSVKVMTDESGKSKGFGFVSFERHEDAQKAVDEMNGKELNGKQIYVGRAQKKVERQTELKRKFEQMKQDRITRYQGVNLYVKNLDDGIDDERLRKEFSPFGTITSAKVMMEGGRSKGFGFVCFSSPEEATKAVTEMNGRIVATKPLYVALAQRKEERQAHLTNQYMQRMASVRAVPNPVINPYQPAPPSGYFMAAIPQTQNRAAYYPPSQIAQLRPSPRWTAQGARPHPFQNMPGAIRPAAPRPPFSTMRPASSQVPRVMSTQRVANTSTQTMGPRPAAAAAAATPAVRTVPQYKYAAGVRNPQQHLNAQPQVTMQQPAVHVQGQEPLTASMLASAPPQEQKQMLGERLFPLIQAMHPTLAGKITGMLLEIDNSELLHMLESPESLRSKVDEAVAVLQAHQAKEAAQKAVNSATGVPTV

[11] = molecular target: T4, Polyadenylate-binding protein 1; test: PABP1 MLLE–PAM2 interaction inhibitors, dose response, miRNA deadenylation inhibitor project, biochemical, fluorescence polarization, Cy5-PAM2 peptide, secondary (AID 602260); type: functional; conditions: read-out: IC50_Mean
INS1 = test: beta cell apoptosis inhibitors, cytokine rescue, dose response, luminescence, retest (AID 449756); type: functional, cell-based; conditions: Rattus norvegicus;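 also: cell death triggered by IL-1 beta plus TNF-alpha plus IFN-gamma mixture; protective hits raise ATP signal compared with cytokine alone wells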
Genome polyprotein = Genome polyprotein (dengue virus type 2, UniProt P29990); test: Dengue-2 NS5 methyltransferase inhibitors, primary screen, biochemical, confirmation dose response (AID 588689); type: functional
Genome polyprotein, sequence (P29990 2492-3391 limits assumed): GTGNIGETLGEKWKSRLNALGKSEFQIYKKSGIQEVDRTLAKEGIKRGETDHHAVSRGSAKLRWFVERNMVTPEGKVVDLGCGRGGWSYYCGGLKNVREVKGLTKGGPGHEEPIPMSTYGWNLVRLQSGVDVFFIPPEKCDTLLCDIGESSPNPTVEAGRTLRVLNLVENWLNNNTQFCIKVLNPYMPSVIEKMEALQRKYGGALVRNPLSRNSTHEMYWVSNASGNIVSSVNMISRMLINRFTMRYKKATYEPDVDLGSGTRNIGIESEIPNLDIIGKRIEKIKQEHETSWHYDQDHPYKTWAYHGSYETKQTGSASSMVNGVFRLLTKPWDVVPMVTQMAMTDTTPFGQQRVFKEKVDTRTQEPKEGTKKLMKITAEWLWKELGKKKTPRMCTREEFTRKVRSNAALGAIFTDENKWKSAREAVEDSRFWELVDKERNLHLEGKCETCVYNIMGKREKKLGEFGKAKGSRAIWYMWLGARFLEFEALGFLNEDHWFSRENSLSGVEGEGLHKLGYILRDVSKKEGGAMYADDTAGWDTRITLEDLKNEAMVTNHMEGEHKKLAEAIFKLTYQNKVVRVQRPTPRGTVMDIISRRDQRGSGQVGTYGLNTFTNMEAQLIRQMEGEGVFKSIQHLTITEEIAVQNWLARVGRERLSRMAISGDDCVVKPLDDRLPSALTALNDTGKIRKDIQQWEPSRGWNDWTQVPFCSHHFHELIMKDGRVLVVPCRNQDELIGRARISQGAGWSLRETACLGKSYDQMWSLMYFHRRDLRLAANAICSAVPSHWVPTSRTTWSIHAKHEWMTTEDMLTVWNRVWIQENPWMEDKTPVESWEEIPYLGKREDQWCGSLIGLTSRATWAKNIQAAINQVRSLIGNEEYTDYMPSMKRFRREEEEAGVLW

Cytochrome P450 2C19 = Cytochrome P450 2C19 (Homo sapiens, UniProt P33261); test: Cytochrome panel assay with activity outcomes. Panel member name: p450-cyp2c19 Compounds with AC50 equal or less than 10 uM are considered active; type: functional; conditions: read-out: AC50
Cytochrome P450 2C19, sequence (P33261 whole entry): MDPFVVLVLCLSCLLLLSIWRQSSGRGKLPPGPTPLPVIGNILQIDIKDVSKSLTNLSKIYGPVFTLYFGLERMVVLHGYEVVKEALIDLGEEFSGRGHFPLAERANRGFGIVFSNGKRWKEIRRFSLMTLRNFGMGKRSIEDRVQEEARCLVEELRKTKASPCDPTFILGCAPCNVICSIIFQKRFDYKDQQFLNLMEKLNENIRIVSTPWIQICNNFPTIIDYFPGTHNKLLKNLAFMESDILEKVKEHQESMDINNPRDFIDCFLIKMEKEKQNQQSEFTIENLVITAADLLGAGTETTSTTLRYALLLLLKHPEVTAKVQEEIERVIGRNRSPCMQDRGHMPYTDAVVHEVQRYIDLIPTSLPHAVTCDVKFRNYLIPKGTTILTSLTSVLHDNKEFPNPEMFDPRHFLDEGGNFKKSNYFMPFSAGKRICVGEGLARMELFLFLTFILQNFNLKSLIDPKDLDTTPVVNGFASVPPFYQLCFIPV

Leucine aminopeptidase = molecular target: T5, Leucine aminopeptidase (Plasmodium falciparum 3D7, UniProt Q8IL11); test: P. falciparum M17LAP inhibitors, primary screen, biochemical, fluorogenic H-Leu-NHMec substrate, 1536-well (AID 1619); type: functional
T5 sequence (Q8IL11 whole entry): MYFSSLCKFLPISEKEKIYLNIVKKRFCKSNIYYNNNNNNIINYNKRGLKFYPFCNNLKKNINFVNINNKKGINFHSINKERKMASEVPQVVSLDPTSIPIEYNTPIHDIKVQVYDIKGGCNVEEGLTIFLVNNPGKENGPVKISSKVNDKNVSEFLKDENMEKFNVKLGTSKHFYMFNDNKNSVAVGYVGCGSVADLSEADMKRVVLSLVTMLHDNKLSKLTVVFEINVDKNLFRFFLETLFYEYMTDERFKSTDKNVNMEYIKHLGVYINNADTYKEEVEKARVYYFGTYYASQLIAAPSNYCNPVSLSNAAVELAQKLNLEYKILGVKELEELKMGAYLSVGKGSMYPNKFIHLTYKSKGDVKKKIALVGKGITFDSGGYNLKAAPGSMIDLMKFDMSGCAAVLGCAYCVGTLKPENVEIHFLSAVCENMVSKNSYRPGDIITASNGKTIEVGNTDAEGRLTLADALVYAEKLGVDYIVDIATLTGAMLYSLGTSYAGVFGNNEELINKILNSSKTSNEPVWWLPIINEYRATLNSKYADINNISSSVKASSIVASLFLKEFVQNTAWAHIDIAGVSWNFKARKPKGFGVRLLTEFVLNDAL

[12] = molecular target: DNA (cytosine-5)-methyltransferase 1 (Homo sapiens, UniProt P26358); test: DNMT1 methyltransferase inhibitors, confirmation, biochemical, fluorescent molecular beacon (AID 602386); type: functional
DNA (cytosine-5)-methyltransferase 1, sequence (P26358 whole entry): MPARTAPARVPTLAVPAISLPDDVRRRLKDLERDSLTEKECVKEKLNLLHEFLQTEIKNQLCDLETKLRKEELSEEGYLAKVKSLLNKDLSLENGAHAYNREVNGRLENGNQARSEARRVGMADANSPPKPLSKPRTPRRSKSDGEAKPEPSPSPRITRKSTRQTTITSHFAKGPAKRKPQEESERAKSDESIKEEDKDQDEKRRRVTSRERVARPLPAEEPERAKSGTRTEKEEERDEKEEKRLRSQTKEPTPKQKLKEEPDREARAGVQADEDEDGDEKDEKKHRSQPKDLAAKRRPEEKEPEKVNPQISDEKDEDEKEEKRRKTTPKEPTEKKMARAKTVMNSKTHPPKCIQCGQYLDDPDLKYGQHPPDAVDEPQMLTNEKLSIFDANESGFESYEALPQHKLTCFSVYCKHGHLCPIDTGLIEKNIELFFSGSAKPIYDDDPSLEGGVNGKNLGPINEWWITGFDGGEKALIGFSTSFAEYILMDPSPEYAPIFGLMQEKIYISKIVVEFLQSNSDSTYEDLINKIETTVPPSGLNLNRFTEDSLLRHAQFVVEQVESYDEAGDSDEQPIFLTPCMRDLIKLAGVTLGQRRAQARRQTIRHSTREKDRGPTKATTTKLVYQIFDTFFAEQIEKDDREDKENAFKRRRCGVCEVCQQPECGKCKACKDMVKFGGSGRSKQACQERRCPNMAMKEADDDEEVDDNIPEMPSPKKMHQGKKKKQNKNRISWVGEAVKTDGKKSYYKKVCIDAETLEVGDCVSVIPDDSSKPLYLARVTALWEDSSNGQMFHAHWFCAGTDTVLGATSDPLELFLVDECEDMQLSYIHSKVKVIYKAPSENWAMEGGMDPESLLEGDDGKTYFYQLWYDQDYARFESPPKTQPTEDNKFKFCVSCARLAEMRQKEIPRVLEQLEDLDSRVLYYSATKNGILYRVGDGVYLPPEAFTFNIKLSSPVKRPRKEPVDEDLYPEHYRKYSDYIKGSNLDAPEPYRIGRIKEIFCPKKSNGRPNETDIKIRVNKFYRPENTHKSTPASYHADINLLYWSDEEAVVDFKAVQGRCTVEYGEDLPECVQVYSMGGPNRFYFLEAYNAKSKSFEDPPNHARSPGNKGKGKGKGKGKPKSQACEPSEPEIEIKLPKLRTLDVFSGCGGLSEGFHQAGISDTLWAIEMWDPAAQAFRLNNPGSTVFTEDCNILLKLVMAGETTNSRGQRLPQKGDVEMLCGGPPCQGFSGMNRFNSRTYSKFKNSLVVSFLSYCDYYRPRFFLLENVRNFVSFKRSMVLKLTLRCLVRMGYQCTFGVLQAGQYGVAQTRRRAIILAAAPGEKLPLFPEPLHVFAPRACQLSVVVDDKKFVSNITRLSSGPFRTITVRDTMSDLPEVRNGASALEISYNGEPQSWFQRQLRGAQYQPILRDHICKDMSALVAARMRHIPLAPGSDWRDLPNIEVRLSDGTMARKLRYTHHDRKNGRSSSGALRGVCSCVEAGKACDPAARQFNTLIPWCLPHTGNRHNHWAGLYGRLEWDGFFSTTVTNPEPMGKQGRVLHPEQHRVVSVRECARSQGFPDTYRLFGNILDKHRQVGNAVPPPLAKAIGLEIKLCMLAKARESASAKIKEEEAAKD

## O=C(CCSc1nnc(-c2ccco2)o1)N1CCOCC1
Escherichia coli
  AC50: 119 µM (active)

## COc1ccc2nc3cc(Cl)ccc3c(Nc3cc(C(C)C)c(O)cc3C)c2c1
Protein RecA
  EC50: 0.318 µM (active)
[1]
  AC50: > 380 µM (inactive)
[2]
  EC50: 1 µM (active)
[3]
  EC50: 154 µM (active)

## CCOc1cc(C(=O)CSc2nnc(CNc3ccc(Cl)cc3)o2)ccc1NC(=O)CC
[4]
  AC50: 7.73 µM (active)
[5]
  AC50: 36.5 µM (active)
[6]
  EC50: 23 µM (active)
[7]
  EC50: 7.28 µM (active)
[8]
  EC50: > 120 µM (not active)
[9]
  AC50: 29.5 µM (active)

## O=C(O)CSC1CC(=O)N(c2ccc(Cl)c(Cl)c2)C1=O (stereo not drawn)
[10]
  IC50: > 66 µM (inactive)
[11]
  IC50: > 66 µM (inactive)

## CC(C)(C)NC(=O)CSc1nc2ccc(NC(=O)CSc3nnnn3Cc3ccccc3)cc2s1
[4]
  AC50: 3.26 µM (active)
[5]
  AC50: 6.81 µM (active)
[9]
  AC50: 53 µM (active)

## Cc1ccc(-n2ncc3c2CCCC3NC(=O)c2ocnc2C)cc1C (stereo not drawn)
[4]
  AC50: 1.29 µM (active)
[5]
  AC50: 3.35 µM (active)
[9]
  AC50: 0.594 µM (active)
INS1
  AC50: 3.69 µM (active)

## Cc1[nH]n(-c2ccccc2)c(=O)c1C(c1cccc([N+](=O)[O-])c1)c1c(C)[nH]n(-c2ccccc2)c1=O
Protein RecA
  EC50: 0.805 µM (active)
Genome polyprotein
  IC50: 52.9 µM (active)
[1]
  AC50: 3.28 µM (active)

## CCCCc1c(O)n(-c2ccccc2)c(SCCN(C)C)nc1=O
[10]
  IC50: > 66 µM (inactive)
Cytochrome P450 2C19
  AC50: 6.31 µM (inconclusive)
[11]
  IC50: > 66 µM (inactive)

## c1ccc(-n2c(SCC3CCCCO3)nnc2-c2cccs2)cc1 (stereo not drawn)
Escherichia coli
  AC50: 24.4 µM (active)

## O=C(CCc1nc(O)c2ccccc2n1)OCC(=O)c1cccc(Cl)c1
Escherichia coli
  AC50: 41.4 µM (active)

## COc1ccc(S(=O)(=O)CC(=O)c2cc3cccc(C)c3oc2=O)cc1
Genome polyprotein
  IC50: 78.1 µM (active)

## CC(C)(CNC(=O)c1ccc(Cl)c(S(=O)(=O)N2CCc3ccccc3C2)c1)N1CCOCC1
[4]
  AC50: 10.5 µM (active)
[9]
  AC50: 2.14 µM (active)

## O=C(Nc1cccc(Cl)c1Cl)C1CC(=O)N(c2ccc(Br)cc2)C1 (stereo not drawn)
[4]
  AC50: 8.23 µM (active)
[5]
  AC50: 9.56 µM (active)
[9]
  AC50: 38.4 µM (active)

## CCCCCCSc1nc(O)c(C2OC(=O)c3c2ccc(OC)c3OC)c(=O)n1-c1ccccc1 (stereo not drawn)
Genome polyprotein
  IC50: 30.2 µM (active)
Leucine aminopeptidase
  IC50: 4.82 µM (active)

## CCOC(=O)c1nn(-c2ccc(F)cc2)c(=O)cc1OCC(=O)Nc1ccc(OCC)cc1
[12]
  IC50: > 99 µM (inactive)

## CCCCN(CCCC)C(=O)c1cn(CC)c2cc(N3CCN(C)CC3)c(F)cc2c1=O
Escherichia coli
  AC50: 1.67 µM (active)

## COc1ccc(CC(N)c2csc(NC(=O)Nc3ccc(C(C)C)cc3)n2)cc1 (stereo not drawn)
[4]
  AC50: 5.16 µM (active)
[5]
  AC50: 11.9 µM (active)
[9]
  AC50: 10.9 µM (active)

## COc1ccc(NC(=O)c2ccco2)cn1
[10]
  IC50: 34.1 µM (inactive)
[11]
  IC50: > 66 µM (inactive)
